What was measured:
[1] = Cmax in rat at 15 umole/kg, po; type: ADME, organism-based; design: route oral; settings: in vivo
[2] = AUC in rat at 5 umole/kg, iv; type: ADME, organism-based; settings: plasma
[3] = Oral bioavailability in rat at 15 umole/kg; type: ADME, organism-based; settings: in vivo
[4] = Volume of distribution at steady state in rat at 5 umole/kg, iv; type: ADME, organism-based; settings: in vivo, read-out: Vdss
[5] = Mean residence time in rat at 5 umole/kg, iv; type: ADME, organism-based; settings: in vivo
[6] = Tmax in rat at 15 umole/kg, po; type: ADME, organism-based; settings: in vivo
[7] = AUC in rat at 15 umole/kg, po; type: ADME, organism-based; settings: plasma
[8] = Clearance in rat at 5 umole/kg, iv; type: ADME, organism-based; settings: in vivo
Rattus norvegicus = assay: Increase in GH level in acute anesthetized rat at 1.74 umol/kg, iv after 15min relative to control; type: functional
[9] = Half life in rat at 5 umole/kg, iv; type: ADME, organism-based; settings: in vivo
[10] = Volume of distribution at steady state in rat at 10 umole/kg, iv; type: ADME, organism-based; settings: in vivo, read-out: Vdss
[11] = molecular target: Growth hormone secretagogue receptor type 1 (Homo sapiens, UniProt Q92847); assay: Agonist activity at GHS receptor; type: functional
[12] = Mean residence time in rat at 10 umole/kg, iv; type: ADME, organism-based; settings: in vivo
[13] = AUC in rat at 10 umole/kg, iv; type: ADME, organism-based; settings: plasma
[14] = Half life in rat at 10 umole/kg, iv; type: ADME, organism-based; settings: in vivo, read-out: AUC (converted)
[15] = Oral bioavailability in rat at 10 umole/kg; type: ADME, organism-based; settings: in vivo
[16] = Clearance in rat at 10 umole/kg, iv; type: ADME, organism-based; settings: in vivo
[17] = AUC in rat at 10 umole/kg, po; type: ADME, organism-based; settings: plasma
[18] = Cmax in rat at 10 umole/kg, po; type: ADME, organism-based; design: route oral; settings: in vivo
[19] = Tmax in rat at 10 umole/kg, po; type: ADME, organism-based; settings: in vivo

Growth hormone secretagogue receptor type 1, sequence (Q92847 whole entry): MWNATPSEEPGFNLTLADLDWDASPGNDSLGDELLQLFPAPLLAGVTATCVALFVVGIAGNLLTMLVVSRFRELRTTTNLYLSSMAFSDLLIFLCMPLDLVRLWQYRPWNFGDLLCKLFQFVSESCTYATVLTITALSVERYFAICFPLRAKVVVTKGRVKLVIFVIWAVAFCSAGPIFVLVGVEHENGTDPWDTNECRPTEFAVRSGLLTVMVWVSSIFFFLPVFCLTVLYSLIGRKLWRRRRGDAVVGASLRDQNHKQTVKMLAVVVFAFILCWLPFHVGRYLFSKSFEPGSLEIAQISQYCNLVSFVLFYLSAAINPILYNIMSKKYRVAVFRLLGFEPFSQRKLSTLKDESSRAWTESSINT

| Compound | Cmax [1] | AUC [2] | bioavailability [3] | Vd [4] | MRT [5] | Tmax [6] | AUC [7] | clearance [8] | Activity (Rattus norvegicus) | half-life [9] | Vd [10] | EC50 [11] | MRT [12] | AUC [13] | half-life [14] | bioavailability [15] | clearance [16] | AUC [17] | Cmax [18] | Tmax [19] |
| --- | --- | --- | --- | --- | --- | --- | --- | --- | --- | --- | --- | --- | --- | --- | --- | --- | --- | --- | --- | --- |
| CC(C)(N)C(=O)N[C@H](COCc1ccccc1)c1nnnn1CCOC(=O)NCCCCO | 68 nM | 0.401 µM·h | 9.2% | 6.4 L/kg | 0.5 h | 0.7 h | 0.11 µM·h | 213 mL/min/kg | 750% | 0.7 h | – | – | – | – | – | – | – | – | – | – |
| CC(C)(N)C(=O)N[C@H](CCC(F)(F)c1ccccc1)c1nnnn1CCOC(=O)NCCCCO | – | – | – | – | – | – | – | – | 1934% | – | 16 L/kg | 0.27 nM | 1.4 h | 0.901 µM·h | 2.4 h | 26% | 183 mL/min/kg | 0.239 µM·h | 166 nM | 1.6 h |
| CC(C)(N)C(=O)N[C@H](CCC(F)(F)c1ccccc1)c1nnnn1CCC#N | – | – | – | – | – | – | – | – | – | – | – | 0.9 nM | – | – | – | – | – | – | – | – |

— ChEMBL document CHEMBL1158152, “(D)-2-tert-Butoxycarbonylamino-5,5-difluoro-5-phenyl-pentanoic acid: synthesis and incorporation into the growth hormone secretagogues” (Bioorg Med Chem Lett, 2008)
